This assay concerns the target T1, PikC (PikCWT; cytochrome P450 CYP107L1) (Streptomyces venezuelae, UniProt O87605).
T1 construct: pET28a-pikC, expressed in E. coli BL21(DE3), Ni-NTA purified; heme protein
T1 sequence (O87605 1-416): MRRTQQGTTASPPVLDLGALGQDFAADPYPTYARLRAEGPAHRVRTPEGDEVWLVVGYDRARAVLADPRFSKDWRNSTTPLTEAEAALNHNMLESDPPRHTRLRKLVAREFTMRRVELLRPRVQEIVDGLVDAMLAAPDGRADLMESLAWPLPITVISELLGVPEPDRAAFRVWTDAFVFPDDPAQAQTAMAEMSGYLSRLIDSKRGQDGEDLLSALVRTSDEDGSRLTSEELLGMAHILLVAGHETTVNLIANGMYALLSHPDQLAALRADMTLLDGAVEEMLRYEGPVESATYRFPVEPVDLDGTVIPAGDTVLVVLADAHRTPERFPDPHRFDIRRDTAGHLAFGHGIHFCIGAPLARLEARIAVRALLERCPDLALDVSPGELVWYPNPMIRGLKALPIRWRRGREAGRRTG
In words: UV-vis difference spectral titration ([…]-420 nm). Format: binding.

The results in this text go back to PMC10039885, “Unnatural activities and mechanistic insights of cytochrome P450 PikC gained from site-specific mutagenesis by non-canonical amino acids” (Nature Communications, 2023).

In general, Kd refers to a measure of binding affinity in units of concentration. A higher Kd goes with lower affinity. Molecule `CC[C@H]1OC(=O)[C@H](C)[C@@H](O[C@@H]2O[C@H](C)C[C@H](N(C)C)[C@H]2O)[C@@H](C)C[C@@H](C)C(=O)/C=C/[C@H]1C` [compound 4, YC-17] registered a Kd of 178 µM.

Molecule `CC[C@H]1OC(=O)[C@H](C)C(=O)[C@H](C)[C@@H](O[C@@H]2O[C@H](C)C[C@H](N(C)C)[C@H]2O)[C@@H](C)C[C@@H](C)C(=O)/C=C/[C@H]1C` [compound 5, narbomycin] registered a Kd of 374 µM.
